Common to all, as to experiment: NCI anticancer screen, dose series, 48 h
In assay [1] the test system is SN12C renal.
Assay [2] concerns SK-MEL-5 melanoma.
Assay [3] relates to HT29 colon.
The subject of assay [4] is DMS 273 small cell lung.
The test system of assay [5] is KM20L2 colon.
For assay [6], the system named is SK-MEL-28 melanoma.
Assay [7] has as its system NCI-H23 lung.
Assay [8] has as its system HCT-116 colon.
Assay [9] has as its system ACHN renal.
Assay [10] concerns MDA-MB-435.

From PubChem BioAssay (NCI) come the findings set out here.

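Protocol summary: plate cells (96-well), add compound at 5 concentrations, incubate 48 h, interpolate endpoints linearly. GI50: concentration for 50% inhibition of growth. TGI denotes the concentration required for complete inhibition of growth.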

On to `O=C(CC1(O)C(=O)Nc2ccccc21)c1ccc(O)cc1O` (centres undefined), for which the TGI in assay [1], in assay [2], in [3], in assay [4], in assay [5] and in [6] was over 100 µM throughout. For the same compound, the TGI in assay [7], in assay [8] and in assay [9] was over 100 µM in each case.
With `CC(=O)[CH-]C(C)=O.CC(=O)[CH-]C(C)=O.CC(=O)[CH-]C(C)=O.[Cl-].[Hf+4]`, the GI50 in assay [1], in assay [3], in assay [4], in assay [5], in assay [6] and in assay [7] was over 100 µM in each case. Also, the GI50 in assay [8] and in assay [9] was over 100 µM in each case. For the same compound, the TGI in assay [1], in assay [3], in assay [4], in assay [5], in [6] and in [7] was over 100 µM throughout. Besides, the TGI in assay [8] and in [9] was over 100 µM throughout.
As for `COc1ccc(C2c3cc4c(cc3OC(O)(CO)C2C(=O)O)OCO4)c(OC)c1OC` (centres undefined) (tested in a mixture with another compound), the TGI in assay [1], in assay [2], in assay [3], in [4], in assay [5] and in assay [6] was over 100 µM throughout. Also, the TGI in assay [7], in assay [8] and in [9] was over 100 µM throughout.
Consider `O=C(O/N=C1/CCC/C1=C\c1ccccc1)c1ccccc1`, for which the TGI in [1], in [2], in assay [3], in assay [4], in assay [5] and in [6] was over 100 µM in each case. Also, the TGI in assay [7], in assay [8] and in [9] was over 100 µM throughout.
On to `COc1ccc(C(=O)O)c2c(=O)c3ccccc3[nH]c12`, for which the TGI in assay [1], in [3], in assay [4], in [5], in [6] and in assay [7] was over 100 µM throughout. In addition, the TGI in assay [8] and in [9] was over 100 µM throughout.
Turning to `Cn1cc(C(=O)/C(Cl)=C(\Cl)C(=O)O)c2ccccc21`, the TGI in [2], in assay [3], in assay [4], in [5], in assay [6] and in assay [7] was over 100 µM each time. Further, the TGI in assay [8] and in assay [9] was over 100 µM in each case.
On to `CO/C=C/c1cc2c(cc1C(OC)OC)OCO2`, for which the TGI is over 100 µM in assay [1]; 42.8 µM in assay [2]; over 100 µM in assay [3]; over 100 µM in assay [4]; over 100 µM in assay [5]; over 100 µM in assay [6]. The TGI in assay [7], in [8] and in assay [9] was over 100 µM each time.
For the compound `O=C1OC(c2ccccc2)(c2ccccc2)CC1CN1CCOCC1` (centres undefined), the TGI in assay [1] was 25.1 µM; in assay [2] it was over 100 µM; in [3], 15.1 µM; in assay [4], over 100 µM; in assay [5], 36.6 µM; in assay [6], 32.9 µM. The TGI in assay [7] is 43.9 µM; in [8], 25.3 µM; in assay [9] it was 32 µM.
With `N=c1oc2cc(O)c(O)cc2cc1C(N)=O`, the TGI in assay [1], in assay [2], in assay [3], in assay [4], in [5] and in [6] was over 100 µM throughout. For the same compound, the TGI in assay [7], in assay [8] and in assay [9] was over 100 µM in each case.
On to `Cc1ccc(NC(=O)/C(=N/NC(=O)CC#N)C2C(=O)N(c3ccccc3)N=C2N)cc1C` (centres undefined), for which the TGI in assay [1], in assay [2], in assay [3], in assay [4], in assay [5] and in assay [6] was over 100 µM in each case. Moreover, the TGI in assay [7], in [8] and in assay [9] was over 100 µM in each case.
For `NC1=NN(c2ccccc2)C(=O)C1C(=O)C(=O)Nc1cccc(C(F)(F)F)c1` (centres undefined), the TGI in assay [1], in [2], in assay [3], in [4], in assay [5] and in assay [7] was over 100 µM in each case. Further, the TGI in [8] and in assay [9] was over 100 µM each time.
With `CC1CC(C)C(=O)C(C(=O)CC2CC(=O)NC2=O)C1` (centres undefined), the TGI in assay [1], in assay [3], in [4], in assay [5], in [6] and in [7] was over 100 µM each time. Further, the TGI in [8] and in [9] was over 100 µM in each case.
With `COc1cc2c3c(n(CCCn4ccnc4)c(=O)c2cc1OC)-c1ccccc1C3=O`, the GI50 was under 0.0467 µM in assay [1]; 0.0417 µM in assay [10]; under 0.0333 µM in assay [2]; under 0.0406 µM in assay [3]; 1.59 µM in assay [6]; under 0.0282 µM in assay [7]. The results for the GI50 in assay [8] and in assay [9] were under 0.0135 µM and under 0.0127 µM, respectively. Besides, the TGI was 5.4 µM in assay [1]; 0.779 µM in assay [10]; 0.0861 µM in assay [2]; 0.603 µM in [3]; over 100 µM in assay [6]; 0.0695 µM in assay [7]. The TGI in assay [8] stood at 0.153 µM; in [9] it was 0.0486 µM.
In the case of `COc1ccc(C(=O)c2ccc(OC)cc2OC)cc1`, the GI50 was 5.58 µM in assay [1]; 0.361 µM in [10]; 2.06 µM in [2]; 2.92 µM in assay [3]; 4.05 µM in assay [6]; 3.79 µM in [7]. In addition, the results for the GI50 in [8] and in assay [9] were 3.24 µM and 6.26 µM, respectively. Moreover, the TGI in [1] is over 100 µM; in assay [10], 2.34 µM; in [2], 5.32 µM; in [3], 24.4 µM; in assay [6], over 100 µM; in assay [7], over 100 µM. The TGI is 34.7 µM in [8] and over 100 µM in [9].
As for `N#Cc1c(SCc2ccccc2)nc2[nH]c(=S)[nH]c(=S)c2c1-c1ccco1`, the GI50 in assay [1] was 15.7 µM; in assay [10], 59.5 µM; in assay [2] it was 23.9 µM; in assay [3] it was over 100 µM; in assay [6] it was over 100 µM; in assay [7] it was 28 µM. The GI50 in assay [8] was 21.6 µM; in assay [9], over 100 µM. The TGI in assay [1] was 36.1 µM; in [10] it was over 100 µM; in [2] it was over 100 µM; in assay [3], over 100 µM; in assay [6], over 100 µM; in assay [7], over 100 µM. The TGI in assay [8] and in assay [9] was over 100 µM throughout.
As to `C/C(=N\[N+](C)(C)C)C(c1ccccc1)C1(c2ccccc2)C(c2ccccc2)=C1c1ccccc1` (centres undefined), the TGI in assay [1], in assay [2], in assay [3], in [4], in [5] and in [7] was over 100 µM each time. The TGI in assay [8] and in assay [9] was over 100 µM each time.
Regarding `O=[N+]([O-])c1ccccc1/C=C/C=C1c2ccccc2-c2ccccc21`, the GI50 in assay [1] is over 100 µM; in assay [10] it was 12.4 µM; in [2], over 100 µM; in [3], over 100 µM; in [6], over 100 µM; in assay [7], over 100 µM. Besides, the GI50 in assay [8] and in [9] was over 100 µM throughout. Besides, the TGI in assay [1], in assay [10], in assay [2], in assay [3], in assay [6] and in assay [7] was over 100 µM throughout. Moreover, the TGI in [8] and in assay [9] was over 100 µM throughout.
Take `O=C(Nc1ccc(N=Nc2ccccc2)cc1)Sc1ccccc1C(=O)O`: the TGI in assay [1], in assay [3], in assay [4], in [5], in assay [6] and in [7] was over 100 µM throughout. For the same compound, the TGI in assay [8] and in [9] was over 100 µM each time.
As for `CCC12CC[C@H](C#N)N3CCc4c(n(c5ccccc45)C(=O)C1)C32` (some centres undefined), the TGI in assay [1] is 37.8 µM; in assay [2], 27.2 µM; in assay [3] it was 31.3 µM; in [4], 19 µM; in assay [5], 35 µM; in [6], 40.4 µM. Also, the results for the TGI in assay [7] and in [8] were 41.8 µM and 26.8 µM, respectively.
